Data taken from ChEMBL document CHEMBL1201862, “PubChem BioAssay data set” (2004).
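Following 48 hours of exposure in 96-well plates, responses at five concentrations were used to interpolate endpoints linearly. Abbreviation: GI50, concentration required for 50% inhibition of growth.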 Calls of active or inactive are those of the source. Cut-off read from the data, not from the text of the source: active = GI50 up to about 1.1 µM and inactive = higher.

Assays:
Test in all cases: inhibition of tumour cell growth, NCI panel, 48 h
OVCAR-4 = tested on: OVCAR-4
NCI-H460 = tested on: NCI-H460
MOLT-4 = tested on: MOLT-4
HL-60 = tested on: HL-60
SF-295 = tested on: SF-295
RPMI-8226 = tested on: RPMI-8226
RXF 393 = tested on: RXF 393
UACC-62 = tested on: UACC-62
CAKI-1 = tested on: CAKI-1
XF498 = tested on: XF498
SNB-19 = tested on: SNB-19
A498 = tested on: A498
U-251 = tested on: U-251
SF-539 = tested on: SF-539
SK-OV-3 = tested on: SK-OV-3
UACC-257 = tested on: UACC-257
HOP-62 = tested on: HOP-62
MDA-MB-231 = tested on: MDA-MB-231
MDA-N = tested on: MDA-N
MCF7 = tested on: MCF7

Measured: GI50

CCCCCCCSCC1C(=O)C23C(O)C1CCC2C12COC3(O)C(O)C1C(C)(C)CCC2O (stereo unspecified)
inactive: OVCAR-4 11.8 µM | NCI-H460 15.1 µM | MOLT-4 3.3 µM | HL-60 3.96 µM | SF-295 17.9 µM | RPMI-8226 4.06 µM | RXF 393 11.2 µM | UACC-62 11.5 µM | CAKI-1 4.83 µM | XF498 18.5 µM | SNB-19 18.9 µM | A498 11.5 µM | U-251 10.7 µM | SF-539 13.2 µM | SK-OV-3 18.1 µM | UACC-257 7.16 µM | HOP-62 20.3 µM

COc1ccc(/N=C/c2ccc(N(CCC#N)S(=O)(=O)c3ccccc3)cc2)cc1
inactive: OVCAR-4 > 100 µM | NCI-H460 > 100 µM | MOLT-4 > 100 µM | HL-60 > 100 µM | SF-295 > 100 µM | RPMI-8226 > 100 µM | RXF 393 > 100 µM | UACC-62 > 100 µM | CAKI-1 > 100 µM | XF498 > 100 µM | SNB-19 > 100 µM | A498 > 100 µM | U-251 > 100 µM | SF-539 > 100 µM | SK-OV-3 > 100 µM | UACC-257 > 100 µM | HOP-62 > 100 µM

CC(C)S(=O)(=O)ON1C(=O)c2ccc([N+](=O)[O-])cc2C1=O
inactive: OVCAR-4 > 100 µM | NCI-H460 > 100 µM | HL-60 > 100 µM | SF-295 > 100 µM | RXF 393 > 100 µM | UACC-62 > 100 µM | CAKI-1 > 100 µM | XF498 > 100 µM | SNB-19 > 100 µM | A498 > 100 µM | U-251 > 100 µM | SF-539 > 100 µM | SK-OV-3 > 100 µM | UACC-257 > 100 µM | HOP-62 > 100 µM

N#CC(C#N)=CNC(=S)c1ccncc1
inactive: OVCAR-4 > 100 µM | NCI-H460 > 100 µM | MOLT-4 64.3 µM | HL-60 48.1 µM | MDA-MB-231 > 100 µM | SF-295 > 100 µM | RPMI-8226 36.9 µM | MDA-N > 100 µM | RXF 393 > 100 µM | UACC-62 > 100 µM | CAKI-1 46.7 µM | SNB-19 41.6 µM | A498 92.9 µM | U-251 > 100 µM | SF-539 23.1 µM | MCF7 76.9 µM | SK-OV-3 > 100 µM | UACC-257 > 100 µM | HOP-62 > 100 µM

CCOc1ccc(/N=C/c2c3ccccc3nc3ccccc23)cc1
inactive: OVCAR-4 70 µM | NCI-H460 48.9 µM | MOLT-4 4.25 µM | HL-60 11 µM | SF-295 59.6 µM | RPMI-8226 21.8 µM | RXF 393 46.2 µM | UACC-62 95.3 µM | CAKI-1 58.2 µM | XF498 65.6 µM | SNB-19 73.8 µM | A498 68.1 µM | U-251 > 100 µM | SF-539 65.6 µM | SK-OV-3 > 100 µM | UACC-257 55.1 µM | HOP-62 39.4 µM

O=C1Cc2c(-c3ccc(Cl)cc3)cc(-c3ccccc3)nc2-c2ccccc2N1
inactive: OVCAR-4 6.62 µM | NCI-H460 2.1 µM | MOLT-4 9.53 µM | HL-60 10.7 µM | MDA-MB-231 4.35 µM | SF-295 6.38 µM | RPMI-8226 9.25 µM | MDA-N 9.35 µM | RXF 393 4.81 µM | UACC-62 11.9 µM | CAKI-1 4.86 µM | SNB-19 1.87 µM | A498 2.07 µM | U-251 3.08 µM | SF-539 8.87 µM | MCF7 9.16 µM | SK-OV-3 4.46 µM | UACC-257 25.4 µM | HOP-62 8.24 µM

COC(=O)C12C34C=CC5(CCC6(C=CC1(CC3)O6)C52C(=O)OC)O4 (stereo unspecified)
inactive: OVCAR-4 > 100 µM | NCI-H460 > 100 µM | MOLT-4 > 100 µM | HL-60 > 100 µM | SF-295 > 100 µM | RXF 393 75 µM | CAKI-1 > 100 µM | XF498 46.8 µM | SNB-19 > 100 µM | A498 93.3 µM | U-251 > 100 µM | SF-539 > 100 µM | SK-OV-3 > 100 µM | UACC-257 > 100 µM | HOP-62 > 100 µM

CC12CC(=O)Nc3ccccc3N1C(c1ccccc1)=NO2 (stereo unspecified)
inactive: OVCAR-4 > 100 µM | NCI-H460 > 100 µM | MOLT-4 > 100 µM | HL-60 > 100 µM | MDA-MB-231 > 100 µM | SF-295 > 100 µM | RPMI-8226 > 100 µM | MDA-N > 100 µM | RXF 393 > 100 µM | UACC-62 > 100 µM | CAKI-1 > 100 µM | SNB-19 > 100 µM | A498 > 100 µM | U-251 > 100 µM | SF-539 > 100 µM | MCF7 > 100 µM | SK-OV-3 > 100 µM | UACC-257 > 100 µM | HOP-62 > 100 µM

C[C@]12CC[C@@H]3c4cc(OCC(F)(F)F)c(O)cc4CC[C@H]3[C@@H]1CC[C@@H]2O
inactive: OVCAR-4 17.9 µM | NCI-H460 1.44 µM | SF-295 1.54 µM | RPMI-8226 1.17 µM | RXF 393 1.52 µM | UACC-62 2.32 µM | CAKI-1 2.74 µM | SNB-19 2.75 µM | A498 7.66 µM | U-251 2.22 µM | SF-539 1.38 µM | MCF7 2.36 µM | SK-OV-3 1.69 µM | UACC-257 7.1 µM | HOP-62 11.6 µM
active: MOLT-4 1 µM | HL-60 0.403 µM | MDA-MB-231 0.536 µM | MDA-N 0.287 µM

C[C@]12CCC(=O)C=C1CC[C@@H]1[C@@H]2[C@@H](O)C[C@@]2(C)[C@H]1CC[C@]2(O)C(=O)CO [HYDROCORTISONE]
inactive: OVCAR-4 > 100 µM | NCI-H460 > 100 µM | MOLT-4 > 100 µM | HL-60 > 100 µM | MDA-MB-231 > 100 µM | SF-295 > 100 µM | MDA-N > 100 µM | RXF 393 > 100 µM | UACC-62 > 100 µM | CAKI-1 > 100 µM | SNB-19 > 100 µM | A498 > 100 µM | U-251 > 100 µM | SF-539 > 100 µM | MCF7 > 100 µM | SK-OV-3 > 100 µM | UACC-257 > 100 µM | HOP-62 > 100 µM
active: RPMI-8226 0.34 µM

CCCCCCCC(=O)OC[n+]1ccc(-c2c(COC(=O)NC(C)C)c(COC(=O)NC(C)C)c3n2CCC3)cc1
inactive: OVCAR-4 38.6 µM | NCI-H460 21.4 µM | MOLT-4 13.3 µM | HL-60 14.8 µM | MDA-MB-231 48.8 µM | SF-295 53.5 µM | RPMI-8226 22.1 µM | MDA-N > 94.8 µM | RXF 393 21.1 µM | UACC-62 13.8 µM | CAKI-1 18.6 µM | SNB-19 88.9 µM | A498 29.9 µM | U-251 51.5 µM | SF-539 23.1 µM | MCF7 30.2 µM | SK-OV-3 63.1 µM | UACC-257 70.6 µM | HOP-62 56.6 µM

COc1ccc2c(c1)CC[C@@H]1C2CC[C@]2(C)C(=O)NC(=O)CC12 (stereo partly specified)
inactive: NCI-H460 > 100 µM | MOLT-4 61.8 µM | HL-60 43.6 µM | SF-295 > 100 µM | RPMI-8226 > 100 µM | UACC-62 > 100 µM | CAKI-1 > 100 µM | XF498 > 100 µM | SNB-19 > 100 µM | A498 > 100 µM | U-251 > 100 µM | SF-539 > 100 µM | SK-OV-3 > 100 µM | UACC-257 > 100 µM | HOP-62 > 100 µM

CCSC1=CC(Cc2ccc(OC)cc2)N(C(=O)OC)C1 (stereo unspecified)
inactive: OVCAR-4 > 100 µM | NCI-H460 > 100 µM | MOLT-4 > 100 µM | HL-60 21.9 µM | SF-295 > 100 µM | RXF 393 32.3 µM | UACC-62 65.8 µM | CAKI-1 86.5 µM | XF498 > 100 µM | SNB-19 > 100 µM | A498 > 100 µM | U-251 > 100 µM | SF-539 > 100 µM | SK-OV-3 > 100 µM | UACC-257 90.6 µM | HOP-62 > 100 µM

CCOC(=O)c1c(C)n(CCN2CCN(C)CC2)c2ccc(OC)cc12
inactive: OVCAR-4 48.6 µM | NCI-H460 48.9 µM | MOLT-4 22.6 µM | HL-60 19.6 µM | MDA-MB-231 24.5 µM | SF-295 34.8 µM | RPMI-8226 20.4 µM | MDA-N 19.6 µM | RXF 393 30.1 µM | UACC-62 17 µM | CAKI-1 32.3 µM | SNB-19 90.2 µM | A498 22.5 µM | U-251 31.8 µM | SF-539 30 µM | MCF7 33.6 µM | SK-OV-3 72.6 µM | UACC-257 16.9 µM | HOP-62 32.3 µM

Cc1cc(C)c(C(=O)/C(=C/c2ccccc2)c2ccccc2)c(C)c1
inactive: OVCAR-4 57.9 µM | NCI-H460 42.4 µM | MOLT-4 29 µM | HL-60 27.5 µM | SF-295 51.6 µM | RPMI-8226 37.1 µM | RXF 393 46.2 µM | UACC-62 > 100 µM | CAKI-1 36.8 µM | XF498 19.2 µM | SNB-19 > 100 µM | U-251 39.9 µM | SF-539 57.5 µM | SK-OV-3 > 100 µM | UACC-257 28.4 µM | HOP-62 > 100 µM
